Assay results from publication PMC9289467, “A Novel Multifunctional 5,6-Dimethoxy-Indanone-Chalcone-Carbamate Hybrids Alleviates Cognitive Decline in Alzheimer’s Disease by Dual Inhibition of Acetylcholinesterase and Inflammation” (Frontiers in Aging Neuroscience, 2022).

Key:
Iba1+ microglia = test: Iba1 immunohistochemistry, microglia morphology, APP/PS1 mice; assay type: in vivo; details: AP5 40 mg/kg once daily 5 months
Protocol: APP/PS1 mice of ages 6 months were randomly divided into vehicle (APP/PS1, n = 10) and treatment groups (AP5, n = 10), which were intragastrically administered with AP5 (40 mg/kg) once daily for consecutive 5 months. AP5 was dissolved in distilled water containing 1% sodium carboxymethyl cellulose.
The fixed hemibrains were paraffin-embedded and sectioned in the coronal plane. The slices were deparaffinized with xylene and rehydrated by a series of gradient alcohols. Antigen retrieval through microwave boiling was performed with 10 mM sodium citrate solution at pH 6.0. The slices were cooled down to room temperature and then rinsed in PBS solution. Then the slices were incubated in 10% goat serum blocking solution for 1 h followed by primary antibodies overnight at 4°C. The next day, the slides were labeled with biotinylated or fluorescent secondary antibodies. Slices were washed three times with PBS before being mounted. Images were captured using a SpinSR10 scanner (Olympus, Tokyo, Japan). […]
After deparaffinization and antigen retrieval, the sections were incubated with 0.3% hydrogen peroxide (H2O2) to inhibit endogenous peroxidase activity for 20 min and blocked by goat serum for 30 min at37°C. Slides were subsequently incubated overnight with specific primary antibodies: anti-Iba1(1:100, ab178847, Abcam, Cambridge, UK) or anti-GFAP (1:100, bs-0199R, Bioss) at4 °C. […]

[1] = target: T1, pre-formed Aβ42-AChE fibrils complex (Homo sapiens, UniProt P22303); test: Disaggregation of pre-formed Aβ42-AChE fibrils (ThT); assay type: biochemical; details: Aβ42 pre-aggregated with AChE for 2 days before co-incubation with AP5
T1 construct: purchased Roche (AChE); Aladdin (Aβ42) R005282 (AChE); A118755 (Aβ42)
Protocol: (§1) The effects of AP5 on Aβ fibril formation and pre-formed Aβ fibrils disaggregation were determined using a previously described method of Thioflavin T (ThT, T3516, Sigma Aldrich, St. Louis, MO, United States) fluorometry ([Jan et al., 2010]).
(§2) Supplementary materials and methods … ...1 […]
(§3) Supplementary Figure 1 … .....7
(§4) Supplementary Figure 2 … .....7
(§5) Supplementary materials and methods
(§6) Prepations ofspecimen for pharmacokinetics analysis
(§7) 24 h afterdosing. Brains were collected at0, 0.25, 0.5,2, 4,8 and 24 h after administration.Plasma extractions were performed by adding 90 μL methanol and 2 μL internalstandard letrozole (500 ng/mL) to a30 µL plasma sample. […]
(§8) Then 90 μL methanol and 2 μL letrozolewere added to 30 µl brainhomogenates. The samples were vortexed for 3 min and centrifuged 15 min at25,000 g.The plasma and brainhomogenate were analyzed by UPLC-TSQ/MS (Thermo Fisher Scientific, Waltham, MA, USA). […]
(§9) To study the kinetics of Aβ-AChE fibril complex formation, 10 μM Aβ was mixed with AChE (R005282, Roche, Basel, Switzerland) and different concentrations AP5 and incubated with 10 μM ThT and 50 mM glycine-NaOH (pH 8.5) at 37°C, the ThT fluorescence was continually measured for 24 h at 30 min intervals. […] Fluorescence emission at485 nm was measured on a Spectra MAX GeminiXS fluorometerat an excitation wavelength of 450 nm. […]

[2] = target: T2, pre-formed Aβ40-AChE fibrils complex (Homo sapiens, UniProt P22303); test: Disaggregation of pre-formed Aβ40-AChE fibrils (ThT); assay type: biochemical; details: Aβ40 pre-aggregated with AChE for 2 days before co-incubation with AP5
T2 construct: purchased Roche (AChE); Invitrogen (Aβ40) R005282 (AChE); 03-136 (Aβ40)
Protocol: as §1, §2, §3, §4, §5, §6, §7, §8, §9

T2 sequence (P22303 32-614, one chain of several): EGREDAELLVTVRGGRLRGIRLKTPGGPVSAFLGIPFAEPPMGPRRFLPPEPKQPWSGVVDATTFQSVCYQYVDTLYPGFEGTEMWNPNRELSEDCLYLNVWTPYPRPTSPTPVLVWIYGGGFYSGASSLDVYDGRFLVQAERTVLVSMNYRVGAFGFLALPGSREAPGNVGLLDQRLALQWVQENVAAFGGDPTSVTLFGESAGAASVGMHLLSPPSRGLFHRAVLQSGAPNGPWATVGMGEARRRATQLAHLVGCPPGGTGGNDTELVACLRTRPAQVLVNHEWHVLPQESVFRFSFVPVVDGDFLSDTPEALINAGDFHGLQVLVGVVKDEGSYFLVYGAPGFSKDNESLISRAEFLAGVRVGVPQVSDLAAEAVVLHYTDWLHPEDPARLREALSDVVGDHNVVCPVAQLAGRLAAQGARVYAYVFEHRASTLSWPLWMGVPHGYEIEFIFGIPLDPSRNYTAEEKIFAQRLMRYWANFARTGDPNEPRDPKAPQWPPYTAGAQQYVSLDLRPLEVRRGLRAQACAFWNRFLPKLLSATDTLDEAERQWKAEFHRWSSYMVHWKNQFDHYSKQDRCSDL
T1 sequence (P22303 32-614, one chain of several): as above

CCN(C)C(=O)Oc1cccc(/C=C2\Cc3cc(OC)c(OC)cc3C2=O)c1 [AP5, (E)-3-((5,6-dimethoxy-1-oxo-1,3-dihydro-2H-inden-2-ylidene)-methyl)phenylethyl(methyl)carbamate]
proportion of activated microglia phenotype (Iba1+ microglia): marked decrease | ThT fluorescence intensity, disaggregation of pre-formed Aβ42 fibrils [1]: marked decline of ThT fluorescence intensity | ThT fluorescence intensity, disaggregation of pre-formed Aβ40 fibrils [2]: marked decline of ThT fluorescence intensity
